± gives the standard deviation of the averaged measurements.
compound: COc1cc([C@@H]2c3cc4c(cc3[C@@H](O[C@@H]3O[C@@H]5CO[C@@H](C)O[C@H]5[C@H](O)[C@H]3O)[C@H]3COC(=O)[C@H]23)OCO4)cc(OC)c1O [ETOPOSIDE]; assay: surviving fraction relative to DMSO-only wells; higher = less growth inhibition; details: 10 nM; exposure time: 5 days
Procedure, shortened: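 Log-phase tumour cell lines were seeded at 250–500 cells per well in 384-well plates. After 24 hours they were exposed continuously for five days to inhibitors at 0.5, 1, 5, 10, 50, 100, 500 and 1000 nM. Viability was read by CellTiter-Glo luminescence after 10 minutes at room temperature, and surviving fraction is luminescence normalised to the median of DMSO-only wells. Each line was screened three times and kept only if replicate Pearson r >0.7 and median Z' >0.3.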

Row | Test System | surviving fraction
1 | JIMT1 BREAST | 1.03 ± 0.015
2 | JURKAT HAEMATOPOIETIC AND LYMPHOID TISSUE | 1.011 ± 0.0045
3 | KPD BONE | 1.02 ± 0.1
4 | LM7 BONE | 1.01 ± 0.13
5 | MCF7 BREAST | 0.9 ± 0.037
6 | MDAMB134 BREAST | 0.992 ± 0.099
7 | MDAMB157 BREAST | 0.99 ± 0.055
8 | MDAMB231 BREAST | 0.995 ± 0.018
9 | MDAMB361 BREAST | 0.946 ± 0.068
10 | MDAMB436 BREAST | 0.943 ± 0.022

same assay, conditions: 50 nM; exposure time: 5 days

Row | Test System | surviving fraction
11 | 22RV1 PROSTATE | 0.922 ± 0.046
12 | 93VU HEADNECK | 1.03 ± 0.12
13 | 143B BONE | 1.01 ± 0.012
14 | A549 LUNG | 1 ± 0.057
15 | ASKA SYNOVIAL | 0.68 ± 0.049
16 | BT20 BREAST | 0.995 ± 0.098
17 | BT549 BREAST | 0.939 ± 0.069
18 | CADOES1 SOFT TISSUE | 0.819 ± 0.048
19 | CAL51 BREAST | 0.929 ± 0.063
20 | CAL120 BREAST | 0.938 ± 0.035
21 | CASKI CERVIX | 0.876 ± 0.051
22 | CHLA90 AUTONOMIC GANGLIA | 0.925 ± 0.043
23 | CME SYNOVIAL | 0.766 ± 0.015
24 | COLO320DM LARGE INTESTINE | 1.14 ± 0.046
25 | DU4475 BREAST | 0.257 ± 0.1
26 | H23 LUNG | 1.11 ± 0.03
27 | HCC38 BREAST | 1.09 ± 0.054
28 | HCC70 BREAST | 0.991 ± 0.13
29 | HCC78 LUNG | 0.841 ± 0.11
30 | HCC202 BREAST | 1.14 ± 0.18
31 | HCC1806 BREAST | 1.14 ± 0.029
32 | HCC1954 BREAST | 0.953 ± 0.054

Row | Test System | surviving fraction
33 | HCT15 LARGE INTESTINE | 1.007 ± 0.0047
34 | HELA CERVIX | 1.14 ± 0.063
35 | HMLE3 BREAST | 0.826 ± 0.018
36 | HMT3552 BREAST | 1.14
37 | HOS BONE | 0.978 ± 0.01
38 | HOSMNG BONE | 1.02 ± 0.021
39 | HS57T BREAST | 1.09 ± 0.055
40 | HS578T BREAST | 0.95 ± 0.11
41 | HSSYII SYNOVIAL | 0.7943 ± 0.0045
42 | HT1080 SOFT TISSUE | 0.616 ± 0.046
43 | HU09 BONE | 0.972 ± 0.12
44 | JIMT1 BREAST | 1.06 ± 0.022
45 | JURKAT HAEMATOPOIETIC AND LYMPHOID TISSUE | 0.633 ± 0.043
46 | KPD BONE | 0.944 ± 0.023
47 | LM7 BONE | 0.994 ± 0.12
48 | MCF7 BREAST | 0.951 ± 0.07
49 | MDAMB134 BREAST | 1.03 ± 0.19
50 | MDAMB157 BREAST | 0.895 ± 0.038
51 | MDAMB231 BREAST | 1.04 ± 0.029
52 | MDAMB361 BREAST | 0.958 ± 0.067
53 | MDAMB436 BREAST | 0.873 ± 0.11

same assay, conditions: 100 nM; exposure time: 5 days

Row | Test System | surviving fraction
54 | 22RV1 PROSTATE | 0.747 ± 0.047
55 | 93VU HEADNECK | 1.14 ± 0.12
56 | 143B BONE | 0.979 ± 0.079
57 | A549 LUNG | 1.09 ± 0.057
58 | ASKA SYNOVIAL | 0.453 ± 0.015
59 | BT20 BREAST | 0.919 ± 0.14
60 | BT549 BREAST | 0.907 ± 0.13
61 | CADOES1 SOFT TISSUE | 0.977 ± 0.023
62 | CAL51 BREAST | 0.921 ± 0.019
63 | CAL120 BREAST | 0.939 ± 0.038
64 | CASKI CERVIX | 0.86 ± 0.0087
65 | CHLA90 AUTONOMIC GANGLIA | 0.925 ± 0.043
66 | CME SYNOVIAL | 0.364 ± 0.04
67 | COLO320DM LARGE INTESTINE | 1.05 ± 0.049
68 | DU4475 BREAST | 0.146 ± 0.037
69 | H23 LUNG | 1.07 ± 0.04
70 | HCC38 BREAST | 1.21 ± 0.059
71 | HCC70 BREAST | 1.09 ± 0.09
72 | HCC78 LUNG | 0.649 ± 0.099
73 | HCC202 BREAST | 1.14 ± 0.22
74 | HCC1806 BREAST | 0.807 ± 0.067
75 | HCC1954 BREAST | 0.654 ± 0.014

Row | Test System | surviving fraction
76 | HCT15 LARGE INTESTINE | 1.05 ± 0.033
77 | HELA CERVIX | 1.18 ± 0.059
78 | HMLE3 BREAST | 0.589 ± 0.06
79 | HMT3552 BREAST | 1.03
80 | HOS BONE | 0.707 ± 0.033
81 | HOSMNG BONE | 1.04 ± 0.018
82 | HS57T BREAST | 0.909 ± 0.06
83 | HS578T BREAST | 0.751 ± 0.064
84 | HSSYII SYNOVIAL | 0.59 ± 0.026
85 | HT1080 SOFT TISSUE | 0.467 ± 0.0051
86 | HU09 BONE | 0.803 ± 0.087
87 | JIMT1 BREAST | 1.07 ± 0.026
88 | JURKAT HAEMATOPOIETIC AND LYMPHOID TISSUE | 0.261 ± 0.01
89 | KPD BONE | 0.811 ± 0.047
90 | LM7 BONE | 0.953 ± 0.075
91 | MCF7 BREAST | 0.935 ± 0.014
92 | MDAMB134 BREAST | 1.12 ± 0.17
93 | MDAMB157 BREAST | 0.874 ± 0.1
94 | MDAMB231 BREAST | 1.03 ± 0.036
95 | MDAMB361 BREAST | 0.963 ± 0.091
96 | MDAMB436 BREAST | 0.822 ± 0.045

same assay, conditions: 500 nM; exposure time: 5 days

Row | Test System | surviving fraction
97 | 22RV1 PROSTATE | 0.42 ± 0.034
98 | 93VU HEADNECK | 0.953 ± 0.054
99 | 143B BONE | 0.484 ± 0.005
100 | A549 LUNG | 0.958 ± 0.048
101 | ASKA SYNOVIAL | 0.3413 ± 0.0023
102 | BT20 BREAST | 0.454 ± 0.11
103 | BT549 BREAST | 0.32 ± 0.027
104 | CADOES1 SOFT TISSUE | 0.735 ± 0.053
105 | CAL51 BREAST | 0.305 ± 0.037
106 | CAL120 BREAST | 0.498 ± 0.1
107 | CASKI CERVIX | 0.303 ± 0.019
108 | CHLA90 AUTONOMIC GANGLIA | 0.557 ± 0.05
109 | CME SYNOVIAL | 0.265 ± 0.0095
110 | COLO320DM LARGE INTESTINE | 1.04 ± 0.03
111 | DU4475 BREAST | 0.0573 ± 0.011
112 | H23 LUNG | 0.565 ± 0.019
113 | HCC38 BREAST | 0.53 ± 0.067
114 | HCC70 BREAST | 0.785 ± 0.077
115 | HCC78 LUNG | 0.0883 ± 0.027
116 | HCC202 BREAST | 0.84 ± 0.31
117 | HCC1806 BREAST | 0.182 ± 0.021
118 | HCC1954 BREAST | 0.512 ± 0.13

Row | Test System | surviving fraction
119 | HCT15 LARGE INTESTINE | 0.704 ± 0.095
120 | HELA CERVIX | 0.301 ± 0.044
121 | HMLE3 BREAST | 0.279 ± 0.045
122 | HMT3552 BREAST | 0.347
123 | HOS BONE | 0.0687 ± 0.0011
124 | HOSMNG BONE | 0.956 ± 0.079
125 | HS57T BREAST | 0.409 ± 0.048
126 | HS578T BREAST | 0.59 ± 0.064
127 | HSSYII SYNOVIAL | 0.116 ± 0.0062
128 | HT1080 SOFT TISSUE | 0.217 ± 0.021
129 | HU09 BONE | 0.146 ± 0.0087
130 | JIMT1 BREAST | 0.893 ± 0.028
131 | JURKAT HAEMATOPOIETIC AND LYMPHOID TISSUE | 0.064 ± 0.005
132 | KPD BONE | 0.393 ± 0.0087
133 | LM7 BONE | 0.677 ± 0.034
134 | MCF7 BREAST | 0.702 ± 0.051
135 | MDAMB134 BREAST | 1.11 ± 0.065
136 | MDAMB157 BREAST | 0.201 ± 0.046
137 | MDAMB231 BREAST | 0.633 ± 0.017
138 | MDAMB361 BREAST | 0.954 ± 0.051
139 | MDAMB436 BREAST | 0.499 ± 0.02

same assay, conditions: 1000 nM; exposure time: 5 days

Row | Test System | surviving fraction
140 | 22RV1 PROSTATE | 0.345 ± 0.03
141 | 93VU HEADNECK | 0.896 ± 0.021
142 | 143B BONE | 0.297
143 | A549 LUNG | 0.67 ± 0.017
144 | ASKA SYNOVIAL | 0.319 ± 0.0085
145 | BT20 BREAST | 0.211 ± 0.052
146 | BT549 BREAST | 0.198 ± 0.034
147 | CADOES1 SOFT TISSUE | 0.528 ± 0.069
148 | CAL51 BREAST | 0.139 ± 0.011
149 | CAL120 BREAST | 0.356 ± 0.011
150 | CASKI CERVIX | 0.182 ± 0.0059
151 | CHLA90 AUTONOMIC GANGLIA | 0.484 ± 0.02
152 | CME SYNOVIAL | 0.369 ± 0.023
153 | COLO320DM LARGE INTESTINE | 0.962 ± 0.042
154 | DU4475 BREAST | 0.0397 ± 0.0084
155 | H23 LUNG | 0.509 ± 0.02
156 | HCC38 BREAST | 0.316 ± 0.026
157 | HCC70 BREAST | 0.578 ± 0.016
158 | HCC78 LUNG | 0.089 ± 0.024
159 | HCC202 BREAST | 0.724 ± 0.13
160 | HCC1806 BREAST | 0.141 ± 0.0035
161 | HCC1954 BREAST | 0.34 ± 0.0014
162 | HCT15 LARGE INTESTINE | 0.328 ± 0.037
163 | HELA CERVIX | 0.182 ± 0.0037

— the supplement of paper PMC6045584
